Laboratory results: patent US20240269148A1, “Enhancement of Anti-Angiogenic Cancer Immunotherapy by Abortogenic Agents” (Therapeutic Solutions International, Inc., priority 2023, published 2024)

Columns and labels:
4T1 cells = assay: 4T1 triple negative breast cancer model in BALB/c mice; type: in vivo
Procedure: Female BALB/c mice were administered 4T1 cells at a concentration of 1 million cells per mouse. VALLOVAX™ at a concentration of 500,000 cells per mouse was administered alone, RU-486 was administered alone (25 μg/g dose) and in combination of RU-486 and VALLOVAX™.

T cell = T cell reactivity in vitro after RU-486 administration (4T1 model); type: cell-based; conditions: administration of RU-486

CC#C[C@]1(O)CC[C@H]2[C@@H]3CCC4=CC(=O)CCC4=C3[C@@H](c3ccc(N(C)C)cc3)C[C@@]21C [RU-486, mifepristone]
Breast cancer induced myeloid suppressor cells (4T1 cells; administration of RU-486): decreased
Generation of CD8 cells capable of adoptively transferring immunity (4T1 cells; administration of RU-486): enhance
Therapeutic activity of ValloVax (4T1 cells; triple negative breast cancer 4T1 model): enhances
T cell reactivity in vitro (T cell): increased
